The values that follow come from patent US7718700B2, “Growth factor-binding compounds and methods of use” (Yale University, priority 2004, dated 2010).

“And” between values parts separate entries of the source, which are not always exact repeats. Equal values may be shown once. Read-outs that look alike come from different tables or passages of the source.

One assay has as its system VEGFR (Flk-1/KDR). Description: VEGF-stimulated Flk-1 tyrosine phosphorylation in Flk-1/NIH 3T3 cells. It counts as cell-based, human. Here is the method:
(§1) Inhibition of growth factor-dependent receptor tyrosine phosphorylation by GFBs. Starved Flk-1/KDR-overexpressing NIH 3T3 cells (Flk-1/NIH 3T3) or NIH 3T3 cells were pretreated with GFBs for 5 min before stimulation with VEGF (50 ng/ml) or PDGF-BB (10 ng/ml) for 10 min, respectively. The cells were then harvested and lysed, and proteins from the lysates were separated by SDS-PAGE and transferred to nitrocellulose. Membranes then were either immunoblotted with anti-phospho-VEGFR2 antibody (Cell Signaling Technologies, Beverly, Mass.) for activated Flk-1 or anti-phospho-tyrosine antibody (4G10, Upstate Biotechnology, Lake Placid, N.Y.) for activated PDGFR. Phosphotyrosine Flk-1 and PDGFR were quantified using a Bio-Rad Model GS-700 Imaging Densitometer (Bio-Rad Laboratories, Inc, Hercules, Calif.) (Blaskovich, M. A. et al. Nat Biotechnol, 2000, 18:1065-70).

The test system of another assay is PDGFR. Description: PDGF-stimulated PDGFR tyrosine phosphorylation in NIH 3T3 cells. It counts as cell-based, mouse. How it is done: as §1
For the next assay, the system named is pancreatic tumors. Particulars: Bergers et al. 2003; cited from earlier work.
In assay [1] the test system is metastatic colorectal cancer. Particulars: patients with metastatic colorectal cancer; cited from earlier work.
Setting [2] is: VEGF 50 ng/ml stimulated Flk-1 tyrosine phosphorylation, read-out: IC50 (μM) VEGFR.
The mark [3] stands for this setting: PDGF-BB 10 ng/ml stimulated receptor tyrosine phosphorylation, NIH 3T3 cells; read-out: IC50 (μM) PDGFR.
The mark [4] stands for this setting: read-out: IC50 (μM) PDGFR; PDGF-BB 10 ng/ml stimulated receptor tyrosine phosphorylation, NIH 3T3 cells.
[5] abbreviates: read-out: IC50 (μM) VEGFR, VEGF 50 ng/ml stimulated Flk-1 tyrosine phosphorylation.

Consider `CCCCOc1c2cc(C(=O)Nc3cc(C(=O)NCCC(=O)O)cc(C(=O)NCCC(=O)O)c3)cc1Cc1cc(C(=O)Nc3cc(C(=O)NCCC(=O)O)cc(C(=O)NCCC(=O)O)c3)cc(c1OCCCC)Cc1cc(C(=O)Nc3cc(C(=O)NCCC(=O)O)cc(C(=O)NCCC(=O)O)c3)cc(c1OCCCC)Cc1cc(C(=O)Nc3cc(C(=O)NCCC(=O)O)cc(C(=O)NCCC(=O)O)c3)cc(c1OCCCC)C2` [GFB203], for which, in the assay with VEGFR (Flk-1/KDR) (setting [2]), the IC50 was 19.8 ± 2.9 µM.
As to `CCCCOc1c2cc(C(=O)Nc3cc(C(=O)O)cc(C(=O)NC(C)(C)C)c3)cc1Cc1cc(C(=O)Nc3cc(C(=O)O)cc(C(=O)NC(C)(C)C)c3)cc(c1OCCCC)Cc1cc(C(=O)Nc3cc(C(=O)O)cc(C(=O)NC(C)(C)C)c3)cc(c1OCCCC)Cc1cc(C(=O)Nc3cc(C(=O)O)cc(C(=O)NC(C)(C)C)c3)cc(c1OCCCC)C2` [GFB213], the IC50 with PDGFR (setting [3]) was found to be 0.57 ± 0.06 µM; in the assay on VEGFR (Flk-1/KDR) (setting [2]) it was 0.85 ± 0.44 µM.
The like results for `CCCCOc1c2cc(C(=O)Nc3cc(C(=O)O)cc(C(=O)NC4CCCCC4)c3)cc1Cc1cc(C(=O)Nc3cc(C(=O)O)cc(C(=O)NC4CCCCC4)c3)cc(c1OCCCC)Cc1cc(C(=O)Nc3cc(C(=O)O)cc(C(=O)NC4CCCCC4)c3)cc(c1OCCCC)Cc1cc(C(=O)Nc3cc(C(=O)O)cc(C(=O)NC4CCCCC4)c3)cc(c1OCCCC)C2` [GFB212] were, in that order, 0.29 ± 0.08 µM and more than 10 µM.
As to `CCCCOc1c2cc(C(=O)Nc3cc(C(=O)O)cc(C(=O)NCc4ccccc4)c3)cc1Cc1cc(C(=O)Nc3cc(C(=O)O)cc(C(=O)NCc4ccccc4)c3)cc(c1OCCCC)Cc1cc(C(=O)Nc3cc(C(=O)O)cc(C(=O)NCc4ccccc4)c3)cc(c1OCCCC)Cc1cc(C(=O)Nc3cc(C(=O)O)cc(C(=O)NCc4ccccc4)c3)cc(c1OCCCC)C2` [GFB211], the IC50 is 1.34 ± 0.32 µM in the assay on PDGFR (setting [4]) and 13 ± 0.49 µM in the assay on VEGFR (Flk-1/KDR) (setting [5]).
On to `CCCCOc1c2cc(C(=O)Nc3cc(C(=O)O)cc(C(=O)OC)c3)cc1Cc1cc(C(=O)Nc3cc(C(=O)O)cc(C(=O)OC)c3)cc(c1OCCCC)Cc1cc(C(=O)Nc3cc(C(=O)O)cc(C(=O)OC)c3)cc(c1OCCCC)Cc1cc(C(=O)Nc3cc(C(=O)O)cc(C(=O)OC)c3)cc(c1OCCCC)C2` [GFB209], for which the IC50 in the assay on PDGFR (setting [3]) is 2.9 µM and 2.91 µM; in the assay on VEGFR (Flk-1/KDR) (setting [2]), 5.58 ± 4.11 µM.
Turning to `Cc1[nH]c(/C=C2\C(=O)Nc3ccccc32)c(C)c1CCC(=O)O` [SU6668], the “effect on pancreatic tumors” value in the assay on pancreatic tumors is on record as “induced regression of advanced pancreatic tumor at late stage of development”.
`CCCCOc1c2cc(C(=O)Nc3cc(C(=O)O)cc(C(=O)Nc4cccc5ccccc45)c3)cc1Cc1cc(C(=O)Nc3cc(C(=O)O)cc(C(=O)Nc4cccc5ccccc45)c3)cc(c1OCCCC)Cc1cc(C(=O)Nc3cc(C(=O)O)cc(C(=O)Nc4cccc5ccccc45)c3)cc(c1OCCCC)Cc1cc(C(=O)Nc3cc(C(=O)O)cc(C(=O)Nc4cccc5ccccc45)c3)cc(c1OCCCC)C2` [GFB219]: the figures for the IC50 with PDGFR (setting [3]) and with VEGFR (Flk-1/KDR) (setting [2]) were 0.53 ± 0.15 µM and more than 10 µM, respectively.
Take `CCCCOc1c2cc(C(=O)Nc3cc(C(=O)NC(CC(=O)O)C(=O)O)cc(C(=O)NC(Cc4ccc(O)cc4)C(=O)O)c3)cc1Cc1cc(C(=O)Nc3cc(C(=O)NC(CC(=O)O)C(=O)O)cc(C(=O)NC(Cc4ccc(O)cc4)C(=O)O)c3)cc(c1OCCCC)Cc1cc(C(=O)Nc3cc(C(=O)NC(CC(=O)O)C(=O)O)cc(C(=O)NC(Cc4ccc(O)cc4)C(=O)O)c3)cc(c1OCCCC)Cc1cc(C(=O)Nc3cc(C(=O)NC(CC(=O)O)C(=O)O)cc(C(=O)NC(Cc4ccc(O)cc4)C(=O)O)c3)cc(c1OCCCC)C2` (stereo not shown) [GFB205]: the IC50 with VEGFR (Flk-1/KDR) (setting [5]) came to 5.86 ± 0.68 µM.
For `CCCCOc1c2cc(C(=O)Nc3cc(C(=O)NC(CC(=O)O)C(=O)O)cc(C(=O)NC(CC(=O)O)C(=O)O)c3)cc1Cc1cc(C(=O)Nc3cc(C(=O)NC(CC(=O)O)C(=O)O)cc(C(=O)NC(CC(=O)O)C(=O)O)c3)cc(c1OCCCC)Cc1cc(C(=O)Nc3cc(C(=O)NC(CC(=O)O)C(=O)O)cc(C(=O)NC(CC(=O)O)C(=O)O)c3)cc(c1OCCCC)Cc1cc(C(=O)Nc3cc(C(=O)NC(CC(=O)O)C(=O)O)cc(C(=O)NC(CC(=O)O)C(=O)O)c3)cc(c1OCCCC)C2` (stereo not shown) [GFB202], the IC50 was 1.39 ± 0.38 µM in the assay with PDGFR (setting [4]) and 11.3 ± 2.9 µM with VEGFR (Flk-1/KDR) (setting [5]).
The like results for `CCCCOc1c2cc(C(=O)Nc3cc(C(=O)O)cc(C(=O)OC(C)(C)C)c3)cc1Cc1cc(C(=O)Nc3cc(C(=O)O)cc(C(=O)OC(C)(C)C)c3)cc(c1OCCCC)Cc1cc(C(=O)Nc3cc(C(=O)O)cc(C(=O)OC(C)(C)C)c3)cc(c1OCCCC)Cc1cc(C(=O)Nc3cc(C(=O)O)cc(C(=O)OC(C)(C)C)c3)cc(c1OCCCC)C2` [GFB210] were, in that order, 0.35 ± 0.31 µM and 4.54 ± 0.55 µM.
With `CCCCOc1c2cc(C(=O)Nc3cc(C(=O)NCCC(=O)O)cc(C(=O)N[C@@H](Cc4ccc(OCC(=O)O)cc4)C(=O)O)c3)cc1Cc1cc(C(=O)Nc3cc(C(=O)NCCC(=O)O)cc(C(=O)N[C@@H](Cc4ccc(OCC(=O)O)cc4)C(=O)O)c3)cc(c1OCCCC)Cc1cc(C(=O)Nc3cc(C(=O)NCCC(=O)O)cc(C(=O)N[C@@H](Cc4ccc(OCC(=O)O)cc4)C(=O)O)c3)cc(c1OCCCC)Cc1cc(C(=O)Nc3cc(C(=O)NCCC(=O)O)cc(C(=O)N[C@@H](Cc4ccc(OCC(=O)O)cc4)C(=O)O)c3)cc(c1OCCCC)C2` [GFB208], the IC50 with PDGFR (setting [3]) was 0.84 ± 0.06 µM.
For `Cc1cc(C)c(/C=C2\C(=O)Nc3ccccc32)[nH]1` [SU5416], the “effect on pancreatic tumors” value with pancreatic tumors is reported as “suppresses early, but not late, development of pancreatic tumors”.
As for `C=CCNC(=O)c1cc(NC(=O)c2cc3c(OCCCC)c(c2)Cc2cc(C(=O)Nc4cc(C(=O)O)cc(C(=O)NCC=C)c4)cc(c2OCCCC)Cc2cc(C(=O)Nc4cc(C(=O)O)cc(C(=O)NCC=C)c4)cc(c2OCCCC)Cc2cc(C(=O)Nc4cc(C(=O)O)cc(C(=O)NCC=C)c4)cc(c2OCCCC)C3)cc(C(=O)O)c1` [GFB216], the IC50 was 0.15 ± 0.01 µM with PDGFR (setting [3]) and more than 10 µM in the assay with VEGFR (Flk-1/KDR) (setting [2]).
The corresponding values for `CCCCOc1c2cc(C(=O)Nc3cc(C(=O)O)cc(C(=O)NC(C)C)c3)cc1Cc1cc(C(=O)Nc3cc(C(=O)O)cc(C(=O)NC(C)C)c3)cc(c1OCCCC)Cc1cc(C(=O)Nc3cc(C(=O)O)cc(C(=O)NC(C)C)c3)cc(c1OCCCC)Cc1cc(C(=O)Nc3cc(C(=O)O)cc(C(=O)NC(C)C)c3)cc(c1OCCCC)C2` [GFB214] are 0.17 ± 0.02 µM and more than 10 µM.
“AVASTIN: humanized anti-VEGF monoclonal antibody”: the “increase of median survival” value in assay [1] is listed as 5 months.
On to `CCCCOc1c2cc(C(=O)Nc3cc(C(=O)O)cc(C(=O)NCCC)c3)cc1Cc1cc(C(=O)Nc3cc(C(=O)O)cc(C(=O)NCCC)c3)cc(c1OCCCC)Cc1cc(C(=O)Nc3cc(C(=O)O)cc(C(=O)NCCC)c3)cc(c1OCCCC)Cc1cc(C(=O)Nc3cc(C(=O)O)cc(C(=O)NCCC)c3)cc(c1OCCCC)C2` [GFB215], for which the IC50 with PDGFR (setting [3]) was 0.21 ± 0.13 µM; in the assay with VEGFR (Flk-1/KDR) (setting [2]), more than 10 µM.
The corresponding values for `CCCCOc1c2cc(C(=O)Nc3cc(C(=O)O)cc(C(=O)O)c3)cc1Cc1cc(C(=O)Nc3cc(C(=O)O)cc(C(=O)O)c3)cc(c1OCCCC)Cc1cc(C(=O)Nc3cc(C(=O)O)cc(C(=O)O)c3)cc(c1OCCCC)Cc1cc(C(=O)Nc3cc(C(=O)O)cc(C(=O)O)c3)cc(c1OCCCC)C2` [GFB201] are 2.62 ± 0.5 µM and 4.96 ± 0.34 µM.
As for `CCCCOc1c2cc(C(=O)Nc3cc(C(=O)OCc4ccccc4)cc(C(=O)OC(C)(C)C)c3)cc1Cc1cc(C(=O)Nc3cc(C(=O)OCc4ccccc4)cc(C(=O)OC(C)(C)C)c3)cc(c1OCCCC)Cc1cc(C(=O)Nc3cc(C(=O)OCc4ccccc4)cc(C(=O)OC(C)(C)C)c3)cc(c1OCCCC)Cc1cc(C(=O)Nc3cc(C(=O)OCc4ccccc4)cc(C(=O)OC(C)(C)C)c3)cc(c1OCCCC)C2` [GFB217], in the assay with PDGFR, the “inhibition of PDGF signaling, in words” value is recorded as “did not have a significant activity”. Moreover, the IC50 with PDGFR (setting [4]) and with VEGFR (Flk-1/KDR) (setting [5]) was more than 10 µM each time.
For `CCCCOc1c2cc(C(=O)Nc3cc(C(=O)NCCC(=O)O)cc(C(=O)N[C@@H](Cc4ccc(O)cc4)C(=O)O)c3)cc1Cc1cc(C(=O)Nc3cc(C(=O)NCCC(=O)O)cc(C(=O)N[C@@H](Cc4ccc(O)cc4)C(=O)O)c3)cc(c1OCCCC)Cc1cc(C(=O)Nc3cc(C(=O)NCCC(=O)O)cc(C(=O)N[C@@H](Cc4ccc(O)cc4)C(=O)O)c3)cc(c1OCCCC)Cc1cc(C(=O)Nc3cc(C(=O)NCCC(=O)O)cc(C(=O)N[C@@H](Cc4ccc(O)cc4)C(=O)O)c3)cc(c1OCCCC)C2` [GFB207], the IC50 in the assay with VEGFR (Flk-1/KDR) (setting [2]) came out at 18.4 ± 2.72 µM.
In the case of `CCCCOc1c2cc(C(=O)Nc3cc(C(=O)O)cc(C(=O)Nc4ccncc4)c3)cc1Cc1cc(C(=O)Nc3cc(C(=O)O)cc(C(=O)Nc4ccncc4)c3)cc(c1OCCCC)Cc1cc(C(=O)Nc3cc(C(=O)O)cc(C(=O)Nc4ccncc4)c3)cc(c1OCCCC)Cc1cc(C(=O)Nc3cc(C(=O)O)cc(C(=O)Nc4ccncc4)c3)cc(c1OCCCC)C2` [GFB218], the figures for the IC50 with PDGFR (setting [3]) and with VEGFR (Flk-1/KDR) (setting [2]) were 0.54 ± 0.15 µM and more than 10 µM, respectively.
